Values quoted from earlier work, collected in patent publication US10446758B2, “Hole transporting material, OLED display panel and electronic device comprising the same” (SHANGHAI TIANMA AM-OLED CO., LTD., priority 2016, dated 2019).

Details: prior art material, background statement

CC1(C)c2ccccc2-c2ccc(N(c3ccc4c(c3)C3(c5ccccc5-c5ccccc53)c3ccccc3-4)c3ccccc3-c3ccccc3)cc21
solubility (in words): good
